Several values for one entry are separate records, joined by “and”; a condition that tells them apart may be missing. Equal values may be shown once. Marks after values point to notes of the source that are not given here.
Test system: patients with moderate to severe chronic plaque psoriasis
Assay: PASI response, Phase II 12-week placebo-controlled trial with 48-week extension
Format: in vivo, human
Settings: for Number of Patients Who Qualified for Dosage Escalation: 40 mg eow (n = 12); for PASI 50 (% patients) After Dose Escalation / PASI 75 (% patients) After Dose Escalation / PASI 90 (% patients) After Dose Escalation: escalation from eow to weekly dosing
Source text: Efficacy outcome measures included PASI and PGA.
The two primary clinical outcome measures used in this study were the psoriasis area and severity index (PASI) and the physician's global assessment (PGA). PASI improvement of greater than or equal to 75% (used as an endpoint in psoriasis clinical trials) at week 12 was the primary efficacy outcome measure for this study. PASI is a composite index indicating severity for three main signs of psoriatic plaques (erythema, scaling, and thickness), weighted by the amount of coverage of these plaques in four main body areas, i.e., head, trunk, upper extremities, and lower extremities. PASI scores, which range from 0-72, with higher scores indicating greater severity, were assessed at screening, baseline, week 1, week 2, week 4, week 8, week 12/early termination, and follow-up.
Skin and safety outcomes were assessed up to Week 60.
Analytical methods included the following: • Analyses of clinical data were performed on a modified intention-to-treat population (ITT). […] Patients whose dosages were increased on or after Week 24 were considered non-responders; • Patients with similar percentage PASI improvement across treatment arms were pooled into four strata: PASI<50, PASI 50-74, PASI 75-99, and PASI 100; and • Week-60 distribution of DLQI scores, mean DLQI scores, and mean change in DLQI from Week 0-60 were calculated within each stratum.
Frequently used as an endpoint in psoriasis clinical trials, the PASI [25] was the primary efficacy outcome in this trial. PASI is a composite index indicating the severity of the three main signs of psoriatic plaques (i.e., erythema, scaling, and thickness) and is weighted by the amount of coverage of these plaques in the four main body areas (head, trunk, upper extremities, and lower extremities). PASI scores range from 0-72, with higher scores indicating greater disease severity. PASI was assessed at screening and baseline, at Weeks 1, 2, 4, 8, and 12/Early Termination, and at the final follow-up visit.
At week 12, placebo patients received an 80-mg loading dose, then 40 mg every other week. […] Patients who receive the rescue therapy were considered non-responders in this analysis.

[1] = 40 mg eow, Week 60, modified ITT, NRI
[2] = 40 mg weekly, Week 60, modified ITT, NRI
[3] = (placebo→eow+eow) group, week 60, observed analysis
[4] = Efficacy at Weeks 24-60 (n = 22)
[5] = Week 12, adalimumab 40 mg eow, modified ITT, NRI
[6] = Week 12, adalimumab 40 mg weekly, modified ITT, NRI
[7] = Week 24, adalimumab 40 mg eow, modified ITT, NRI
[8] = Week 24, adalimumab 40 mg weekly, modified ITT, NRI
[9] = Week 24, placebo/adalimumab 40 mg eow (adalimumab from Week 12), modified ITT, NRI
[10] = Week 36, adalimumab 40 mg eow, modified ITT, NRI
[11] = Week 36, adalimumab 40 mg weekly, modified ITT, NRI
[12] = Week 36, placebo/adalimumab 40 mg eow (adalimumab from Week 12), modified ITT, NRI
[13] = Week 60, adalimumab 40 mg eow, modified ITT, NRI

Adalimumab: a human anti-TNF mAb, described in U.S. Pat. No. 6,090,382 as D2E7 (HUMIRA, Abbott Laboratories)
Number of Patients Who Qualified for Dosage Escalation (Week 24): 9
Number of Patients Who Qualified for Dosage Escalation (Week 28): 1
Number of Patients Who Qualified for Dosage Escalation (Week 32): 0
Number of Patients Who Qualified for Dosage Escalation (Week 44): 1
Number of Patients Who Qualified for Dosage Escalation (Week 52): 0
Number of Patients Who Qualified for Dosage Escalation (Week 60): 1
patients with sustained, clinically significant improvement (40 mg eow dosing): ~80%
Overall PASI 75 response rate (40 mg eow, Week 12, modified ITT, NRI): 53* % of Patients
Overall PASI 75 response rate (40 mg eow, Week 24, modified ITT, NRI): 64 % of Patients
Overall PASI 75 response rate (40 mg eow, Week 36, modified ITT, NRI): 64 % of Patients
Overall PASI 75 response rate [1]: 58 % of Patients and 56 % of Patients
PASI 50 response rate [1]: 64 % Patients
PASI 90 response rate [1]: 33 % Patients
PASI 100 response rate [1]: 16 % Patients
Overall PASI 75 response rate (40 mg eow, Week 60, modified ITT, NRI, listed as adalimumab): 58 % of Patients
mean percentage PASI improvement (40 mg every other week dosage of placebo/adalimumab, week 60): 69%
mean percentage PASI improvement (40 mg of adalimumab alone, on a weekly basis, week 60): 69%
Overall PASI 75 response rate (40 mg weekly, Week 12, modified ITT, NRI): 80* % of Patients
Overall PASI 75 response rate (40 mg weekly, Week 24, modified ITT, NRI): 72 % of Patients
Overall PASI 75 response rate (40 mg weekly, Week 36, modified ITT, NRI): 68 % of Patients
Overall PASI 75 response rate [2]: 64 % of Patients
PASI 50 response rate [2]: 66 % Patients
PASI 90 response rate [2]: 48 % Patients
PASI 100 response rate [2]: 26 % Patients
mean percentage PASI improvement (40 mg weekly, week 60): 84%
PASI 75-99 response rate [3]: 38
PASI 100 response rate [3]: 17
PASI 75 Response at Week 60, patients eligible for dose escalation (Adalimumab 40 mg eow (n = 9)): 22% (2/9)
PASI 50 (% patients) After Dose Escalation (Efficacy at Week 60 (n = 22)): 36%
PASI 75 (% patients) After Dose Escalation (Efficacy at Week 60 (n = 22)): 18%
PASI 90 (% patients) After Dose Escalation (Efficacy at Week 60 (n = 22)): 0%
PASI 50 (% patients) After Dose Escalation [4]: 55%
PASI 75 (% patients) After Dose Escalation [4]: 23%
PASI 90 (% patients) After Dose Escalation [4]: 5%
PASI 75 Response at Week 60, patients eligible for dose escalation (Placebo/Adalimumab 40 mg eow (n = 13)): 15% (2/13)
Percentages of Patients with > PASI 75 Response (Week 12, 40 mg eow (Table 79)): 53%
Percentages of Patients with > PASI 75 Response (Week 12, 40 mg weekly (Table 79)): 80%
Percentage of patients who achieved PASI 100 (Week 12, adalimumab 40 mg eow, NRI): 11* %
PASI 50 (% patients) [5]: 76%
Percentage of patients who achieved PASI 75 [5]: 53%
Percentage of patients who achieved PASI 90 [5]: 24%
Percentage of patients who achieved PASI 100 (Week 12, adalimumab 40 mg weekly, NRI): 26* %
PASI 50 (% patients) [6]: 88%
Percentage of patients who achieved PASI 75 [6]: 80%
Percentage of patients who achieved PASI 90 [6]: 48%
Patients Eligible for Dose Escalation (<PASI 50 response), number (Week 24, Adalimumab 40 mg eow (n = 9)): 5
Patients Eligible for Dose Escalation (<PASI 50 response), number (Week 24, Placebo/Adalimumab 40 mg eow (n = 13)): 5
Percentage of patients who achieved PASI 100 (Week 24, adalimumab 40 mg eow, NRI): 13%
Percentage of patients who achieved PASI 75 [7]: 64%
Percentage of patients who achieved PASI 90 [7]: 42%
Percentage of patients who achieved PASI 100 (Week 24, adalimumab 40 mg weekly, NRI): 24%
Percentage of patients who achieved PASI 75 [8]: 72%
Percentage of patients who achieved PASI 90 [8]: 62%
Percentage of patients who achieved PASI 100 (Week 24, placebo/adalimumab 40 mg eow (adalimumab from Week 12), NRI): 11%
Percentage of patients who achieved PASI 75 [9]: 55%
Percentage of patients who achieved PASI 90 [9]: 32%
Patients Eligible for Dose Escalation (<PASI 50 response), number (Week 28, Adalimumab 40 mg eow (n = 9)): 1
Patients Eligible for Dose Escalation (<PASI 50 response), number (Week 28, Placebo/Adalimumab 40 mg eow (n = 13)): 2
Patients Eligible for Dose Escalation (<PASI 50 response), number (Week 32, Adalimumab 40 mg eow (n = 9)): 0
Patients Eligible for Dose Escalation (<PASI 50 response), number (Week 32, Placebo/Adalimumab 40 mg eow (n = 13)): 2
Percentage of patients who achieved PASI 100 (Week 36, adalimumab 40 mg eow, NRI): 22%
Percentage of patients who achieved PASI 75 [10]: 64%
Percentage of patients who achieved PASI 90 [10]: 49%
Percentage of patients who achieved PASI 100 (Week 36, adalimumab 40 mg weekly, NRI): 36%
Percentage of patients who achieved PASI 75 [11]: 68%
Percentage of patients who achieved PASI 90 [11]: 58%
Percentage of patients who achieved PASI 100 (Week 36, placebo/adalimumab 40 mg eow (adalimumab from Week 12), NRI): 19%
Percentage of patients who achieved PASI 75 [12]: 62%
Percentage of patients who achieved PASI 90 [12]: 43%
Patients Eligible for Dose Escalation (<PASI 50 response), number (Week 44, Adalimumab 40 mg eow (n = 9)): 1
Patients Eligible for Dose Escalation (<PASI 50 response), number (Week 44, Placebo/Adalimumab 40 mg eow (n = 13)): 1
Patients Eligible for Dose Escalation (<PASI 50 response), number (Week 52, Adalimumab 40 mg eow (n = 9)): 0
Patients Eligible for Dose Escalation (<PASI 50 response), number (Week 52, Placebo/Adalimumab 40 mg eow (n = 13)): 3
Patients Eligible for Dose Escalation (<PASI 50 response), number (Week 60, Adalimumab 40 mg eow (n = 9)): 2
Patients Eligible for Dose Escalation (<PASI 50 response), number (Week 60, Placebo/Adalimumab 40 mg eow (n = 13)): 0
Percentage of patients who achieved PASI 100 (Week 60, adalimumab 40 mg eow, NRI): 16%
PASI 50 (% patients) [13]: 67%
Percentage of patients who achieved PASI 75 [13]: 58%
Percentage of patients who achieved PASI 90 [13]: 33%
Percentage of patients who achieved PASI 100 (Week 60, adalimumab 40 mg weekly, NRI): 26%

From patent US9605064B2, “Methods and compositions for treatment of skin disorders” (AbbVie Biotechnology Ltd, priority 2006, dated 2017)
